Among the data in ChEMBL document CHEMBL1136926 (J Med Chem, 2009) are pKb and pEC50 values, retold here.

The source made the active and inactive calls. The rule behind the calls is not given here. Positions of bridges follow the written chain, without caps; N, C: chain ends. Non-standard residues stand in square brackets, D forms with d. Residues, ends and D or L forms follow the SMILES beside them. dPen = CC(C)(S)[C@@H](N)C(=O)O; Orn = NCCC[C@H](N)C(=O)O

The target in test [1] is T1, Urotensin-2 receptor (Rattus norvegicus) (UniProt P49684).
T1 sequence (whole entry): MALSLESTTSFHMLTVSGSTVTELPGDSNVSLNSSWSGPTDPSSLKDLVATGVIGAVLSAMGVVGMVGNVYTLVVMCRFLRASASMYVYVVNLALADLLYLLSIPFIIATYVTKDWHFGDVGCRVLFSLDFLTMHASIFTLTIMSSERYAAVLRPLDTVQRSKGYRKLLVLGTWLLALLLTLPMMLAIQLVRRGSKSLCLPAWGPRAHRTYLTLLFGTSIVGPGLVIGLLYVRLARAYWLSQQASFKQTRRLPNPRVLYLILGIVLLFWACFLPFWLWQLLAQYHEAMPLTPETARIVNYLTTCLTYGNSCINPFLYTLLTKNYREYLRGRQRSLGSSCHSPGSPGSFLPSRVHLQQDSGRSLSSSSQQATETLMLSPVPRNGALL
The test can be described thus: Antagonist activity at UT2 receptor in Albino rat aorta assessed as inhibition of […] aortic contraction. It is filed as functional, tissue-based.

Test [2] addresses T1, Urotensin-2 receptor (Rattus norvegicus). The note with it: Albino, Aorta.
Description: Agonist activity at UT2 receptor in Albino rat aorta assessed as induction of aortic contraction

For `CC(C)[C@H](NC(=O)[C@@H]1CSSC(C)(C)[C@@H](NC(=O)[C@@H](N)CCCCN)C(=O)N[C@@H](Cc2ccccc2)C(=O)N[C@H](Cc2c[nH]c3ccccc23)C(=O)N[C@@H](CCCN)C(=O)N[C@@H](Cc2ccc(O)cc2)C(=O)N1)C(=O)O`, the pKb in test [1] is 7.49. `CC(C)[C@H](NC(=O)[C@@H]1CSSC(C)(C)[C@@H](NC(=O)[C@@H](N)CC(=O)O)C(=O)N[C@@H](Cc2ccccc2)C(=O)N[C@H](Cc2c[nH]c3ccccc23)C(=O)N[C@@H](CCCN)C(=O)N[C@@H](Cc2ccc(O)cc2)C(=O)N1)C(=O)O` (H-D[dPen]F[dW][Orn]YCV-OH; disulfide 2-7): the pEC50 entry in test [2] was “inactive”. In addition, the pKb in test [1] stood at 8.3.
